Assays:
Experiment in all cases: relative viability (nuclei count vs DMSO), 5 days (fraction); higher = more cells survive
Cediranib + Alpelisib = compound: COc1cc2c(Oc3ccc4[nH]c(C)cc4c3F)ncnc2cc1OCCCN1CCCC1 [Cediranib] + Cc1nc(NC(=O)N2CCC[C@H]2C(N)=O)sc1-c1ccnc(C(C)(C)C(F)(F)F)c1 [Alpelisib] (partner 2 µM)
Summary of the method: (§1)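 Each reported value is a median over duplicate plates. It expresses relative viability: treated-well nuclei count divided by vehicle-well nuclei count. Lung cancer cell lines in 1536-well plates were dosed by pin tool a day after seeding, alone with one drug or with a fixed anchor-drug dose plus five library-drug doses (not always all listed) in √10 steps, and nuclei were counted after 5 days.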

Decitabine + Vorinostat = compound: Nc1ncn([C@H]2C[C@H](O)[C@@H](CO)O2)c(=O)n1 [Decitabine] + O=C(CCCCCCC(=O)Nc1ccccc1)NO [Vorinostat] (partner 1 µM)
Summary of the method: as §1

Decitabine + Palbociclib = compound: Nc1ncn([C@H]2C[C@H](O)[C@@H](CO)O2)c(=O)n1 [Decitabine] + CC(=O)c1c(C)c2cnc(Nc3ccc(N4CCNCC4)cn3)nc2n(C2CCCC2)c1=O [Palbociclib] (partner 0.5 µM)
Summary of the method: as §1

Halofuginone + AZD7762 = compound: O=C(C[C@H]1NCCC[C@@H]1O)Cn1cnc2cc(Br)c(Cl)cc2c1=O (racemic) [Halofuginone] + NC(=O)Nc1cc(-c2cccc(F)c2)sc1C(=O)N[C@H]1CCCNC1 [AZD7762] (partner 0.2 µM)
Summary of the method: as §1

Cell Line	relative viability (Cediranib + Alpelisib; first compound 0.04 µM)	relative viability (Cediranib + Alpelisib; first compound 0.4 µM)	relative viability (Cediranib + Alpelisib; first compound 1.265 µM)	relative viability (Cediranib + Alpelisib; first compound 4 µM)	relative viability (Decitabine + Vorinostat; first compound 0.04 µM)	relative viability (Decitabine + Vorinostat; first compound 0.1265 µM)	relative viability (Decitabine + Vorinostat; first compound 0.4 µM)	relative viability (Decitabine + Vorinostat; first compound 1.265 µM)	relative viability (Decitabine + Vorinostat; first compound 4 µM)	relative viability (Decitabine + Palbociclib; first compound 0.04 µM)	relative viability (Decitabine + Palbociclib; first compound 0.1265 µM)	relative viability (Decitabine + Palbociclib; first compound 0.4 µM)	relative viability (Decitabine + Palbociclib; first compound 1.265 µM)	relative viability (Decitabine + Palbociclib; first compound 4 µM)	relative viability (Halofuginone + AZD7762; first compound 0.001 µM)	relative viability (Halofuginone + AZD7762; first compound 0.003162 µM)	relative viability (Halofuginone + AZD7762; first compound 0.01 µM)	relative viability (Halofuginone + AZD7762; first compound 0.03162 µM)	relative viability (Halofuginone + AZD7762; first compound 0.1 µM)	relative viability (Cediranib + Alpelisib; first compound 0.1265 µM)
NCI-H1395	0.947	1.01	1.04	1.04	0.548	0.634	0.605	0.429	0.524	0.583	0.606	0.6	0.55	0.523	0.385	0.39	0.372	0.385	0.41	
NCI-H1437	1.02	0.971	0.954	1.12	0.522	0.542	0.444	0.373	0.421	0.343	0.321	0.247	0.265	0.28	1.11	1.08	1.07	1.17	1.11	1.03
NCI-H1651	1.04	1.02	1.01	0.805	0.478	0.456	0.483	0.296	0.407	0.522	0.508	0.515	0.389	0.403	0.485	0.487	0.476	0.457	0.466	1.03
NCI-H1666	1.04	0.875	0.924	0.962	0.943	1.05	0.922	0.894	0.836	0.692	0.684	0.675	0.553	0.647	0.811	0.711	0.84	0.841	0.956	0.995
NCI-H1734	0.626	0.711	0.619	0.848	0.698	0.685	0.48	0.297	0.306	0.331	0.338	0.32	0.284	0.236	0.558	0.619	0.52	0.576	0.269	0.741
NCI-H1755	1	0.854	0.918	1.01	0.637	0.608	0.611	0.403	0.429	0.461	0.495	0.424	0.431	0.407	0.442	0.407	0.469	0.399	0.303	0.919
NCI-H1793	0.683	0.64		0.788	0.462	0.631	0.552	0.382	0.325	0.339	0.329	0.381	0.301	0.31	0.461	0.593	0.508	0.394	0.549	0.694
NCI-H1915	1.05	0.997	1.08	1.09	0.263	0.235	0.206	0.158	0.155	0.328	0.209	0.22	0.194	0.192	0.7	0.682	0.736	0.656	0.68	1
NCI-H1944	0.876	0.757	0.785	0.815	0.505	0.486	0.424	0.265	0.299	0.331	0.32	0.313	0.294	0.281	0.524	0.446	0.544	0.669	0.381	1.16
NCI-H1975	0.716	0.619	0.677	0.591	0.508	0.412	0.375	0.281	0.291	0.395	0.46	0.285	0.231	0.301	0.737	0.792	0.666	0.644	0.402	0.621
NCI-H1993	0.734	0.631	0.677	0.791	0.628	0.737	0.614	0.399	0.487	0.646	0.589	0.645	0.503	0.583	0.733	0.421	0.787	1.11	0.586	0.709
NCI-H2085	1.02	0.974	1.09	0.953	0.65	0.657	0.591	0.443	0.431	0.465	0.403	0.408	0.335	0.395	0.996	1.02	0.947	0.992	0.932	0.94
NCI-H2087	1.05	1.18	1.11	1.14	0.268	0.285	0.301	0.304	0.208	0.204	0.265	0.204	0.202	0.221	1.42	1.48	1.33	1.48	1.01	1.25
NCI-H2126	0.776	0.732	0.662	0.781	0.675	0.678	0.477	0.488	0.386	0.367	0.354	0.313	0.36	0.372	1.02	0.976	1.01	0.889	0.995	0.796
NCI-H2170	0.823	0.744	0.748	0.882	0.582	0.568	0.414	0.28	0.257	0.314	0.341	0.334	0.256	0.227	0.929	0.935	0.875	0.886	0.866	0.901
NCI-H2347	1.15	0.919	0.975	1.12	0.522	0.542	0.521	0.379	0.424	0.462	0.417	0.411	0.423	0.437	0.673	0.745	0.681	0.822	0.538	0.997
